Test results reported in ChEMBL document CHEMBL1201862, “PubChem BioAssay data set” (2004).
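All cell lines were grown in 96-well plates and treated with compound for 48 hours. GI50 = concentration required for 50% inhibition of growth.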 The source made the active and inactive calls. No stated cut-off is given here; in the data, active = GI50 up to about 1.1 µM and inactive = higher.

How the values were obtained:
Experiment in all cases: NCI-60 cell line screen, 48 h
OVCAR-5 = system: OVCAR-5
SR = system: SR
OVCAR-3 = system: OVCAR-3
OVCAR-8 = system: OVCAR-8
EKVX = system: EKVX
SF-295 = system: SF-295
K562 = system: K562
A549 = system: A549
RPMI-8226 = system: RPMI-8226
SN12C = system: SN12C
NCI-H23 = system: NCI-H23
NCI-H460 = system: NCI-H460
MOLT-4 = system: MOLT-4
TK-10 = system: TK-10
SK-MEL-2 = system: SK-MEL-2
MCF7 = system: MCF7
DU-145 = system: DU-145
CAKI-1 = system: CAKI-1
Hs-578T = system: Hs-578T

Measured: GI50

O=c1[nH]nc(Nc2ccccc2)c2nnn(C3CCCCC3)c12
inactive: OVCAR-5 > 100 µM | SR > 100 µM | OVCAR-3 > 100 µM | OVCAR-8 > 100 µM | EKVX > 100 µM | SF-295 > 100 µM | K562 > 100 µM | A549 > 100 µM | RPMI-8226 > 100 µM | SN12C > 100 µM | NCI-H23 > 100 µM | NCI-H460 > 100 µM | MOLT-4 > 100 µM | TK-10 > 100 µM | SK-MEL-2 > 100 µM | MCF7 > 100 µM | DU-145 > 100 µM | CAKI-1 > 100 µM

CS(=O)(=O)OCCN1CCN(C(=O)c2ccc(Cl)c3c(Nc4ccc(S(=O)(=O)N=C(N)N)cc4)c4ccccc4nc23)CC1
inactive: OVCAR-5 > 100 µM | SR > 100 µM | OVCAR-3 > 100 µM | OVCAR-8 > 100 µM | SF-295 > 100 µM | K562 > 100 µM | A549 > 100 µM | RPMI-8226 > 100 µM | SN12C > 100 µM | NCI-H23 > 100 µM | NCI-H460 > 100 µM | MOLT-4 > 100 µM | TK-10 > 100 µM | SK-MEL-2 > 100 µM | CAKI-1 > 100 µM

COc1ccc(C(=O)O[C@H]2[C@@H]3C=CO[C@@H](OC4OC(CO)C(O)C(O)C4O)[C@@H]3[C@@]3(CO)O[C@@H]23)cc1O (some centres not stated)
inactive: OVCAR-5 > 100 µM | OVCAR-3 > 100 µM | OVCAR-8 > 100 µM | EKVX > 100 µM | SF-295 > 100 µM | K562 > 100 µM | A549 > 100 µM | RPMI-8226 > 100 µM | SN12C > 100 µM | NCI-H23 > 100 µM | NCI-H460 > 100 µM | MOLT-4 > 100 µM | TK-10 > 100 µM | SK-MEL-2 > 100 µM | CAKI-1 > 100 µM

COc1ccc2oc(=N)c(C(N)=O)cc2c1
inactive: OVCAR-5 > 100 µM | SR 38.5 µM | Hs-578T 18.2 µM | OVCAR-3 37.4 µM | OVCAR-8 > 100 µM | K562 > 100 µM | A549 > 100 µM | RPMI-8226 > 100 µM | SN12C 74.5 µM | NCI-H23 68.2 µM | NCI-H460 39.2 µM | MOLT-4 65.9 µM | SK-MEL-2 23.6 µM | DU-145 71.9 µM | CAKI-1 50.6 µM

C=Cc1ccc(C)[n+](C[Si](C)(C)O[Si](C)(C)C)c1
inactive: OVCAR-5 > 100 µM | SR > 100 µM | OVCAR-3 > 100 µM | OVCAR-8 > 100 µM | EKVX > 100 µM | SF-295 > 100 µM | K562 > 100 µM | A549 > 100 µM | RPMI-8226 > 100 µM | SN12C > 100 µM | NCI-H23 > 100 µM | MOLT-4 > 100 µM | SK-MEL-2 > 100 µM | CAKI-1 > 100 µM

C(=C\c1ccccc1)/C=N/c1ccc2c(c1)Cc1ccccc1-2
inactive: OVCAR-5 > 100 µM | SR 24 µM | Hs-578T 50.8 µM | OVCAR-3 46 µM | OVCAR-8 57.9 µM | EKVX 49.1 µM | SF-295 > 100 µM | K562 34.2 µM | A549 > 100 µM | SN12C 41.1 µM | NCI-H23 36.1 µM | NCI-H460 58.1 µM | MOLT-4 31 µM | TK-10 60.8 µM | SK-MEL-2 57.1 µM | DU-145 31.3 µM | CAKI-1 > 100 µM

CCN(CC)Cc1cc(Nc2ccnc3ccc4nn(C)nc4c23)ccc1O
inactive: OVCAR-5 12.6 µM | SR 74.6 µM | OVCAR-3 12.3 µM | OVCAR-8 11.4 µM | SF-295 13.6 µM | K562 > 100 µM | A549 21.1 µM | RPMI-8226 7.85 µM | SN12C 11.3 µM | NCI-H23 15.3 µM | NCI-H460 5.64 µM | MOLT-4 6.58 µM | TK-10 22.4 µM | CAKI-1 28.8 µM

C[Si](C)(OCCS(=O)(=O)O)OC(=C1S(=O)(=O)OCCOS1(=O)=O)c1cccc2ccccc12
inactive: OVCAR-5 > 100 µM | SR > 100 µM | OVCAR-3 36.5 µM | OVCAR-8 > 100 µM | EKVX > 100 µM | SF-295 > 100 µM | K562 84.5 µM | A549 > 100 µM | RPMI-8226 > 100 µM | SN12C > 100 µM | NCI-H23 > 100 µM | NCI-H460 > 100 µM | MOLT-4 > 100 µM | TK-10 > 100 µM | SK-MEL-2 > 100 µM | MCF7 67.6 µM | DU-145 > 100 µM | CAKI-1 > 100 µM

Cc1c(O)c(=O)ccn1C1OC(CO)C(O)C1O (configuration not stated)
inactive: OVCAR-5 > 100 µM | SR > 100 µM | OVCAR-3 > 100 µM | OVCAR-8 > 100 µM | EKVX > 100 µM | SF-295 > 100 µM | K562 50.4 µM | A549 > 100 µM | RPMI-8226 > 100 µM | SN12C > 100 µM | NCI-H460 59.4 µM | MOLT-4 67.1 µM | TK-10 68.9 µM | SK-MEL-2 > 100 µM | CAKI-1 > 100 µM

COc1ccc(Cc2c(N)[nH]c(=O)n(C)c2=O)cc1
inactive: OVCAR-5 > 100 µM | Hs-578T 45.1 µM | OVCAR-3 > 100 µM | OVCAR-8 > 100 µM | EKVX 10.6 µM | SF-295 > 100 µM | K562 > 100 µM | A549 > 100 µM | RPMI-8226 > 100 µM | SN12C 42.8 µM | NCI-H23 > 100 µM | NCI-H460 72.1 µM | TK-10 > 100 µM | SK-MEL-2 > 100 µM | MCF7 5.75 µM | CAKI-1 96.6 µM

Clc1ccc(OCc2nnc(CCCCCCCCc3nnc(COc4ccc(Cl)cc4)o3)o2)cc1
inactive: OVCAR-5 > 100 µM | OVCAR-3 > 100 µM | EKVX > 100 µM | SF-295 > 100 µM | K562 48.1 µM | A549 72.1 µM | RPMI-8226 > 100 µM | SN12C 43.8 µM | NCI-H23 79.3 µM | NCI-H460 > 100 µM | MOLT-4 14.8 µM | TK-10 > 100 µM | SK-MEL-2 > 100 µM | MCF7 28.2 µM | DU-145 68.7 µM | CAKI-1 39.7 µM

COc1cc(C(CC(OC)OC)=C(C#N)C#N)cc(OC)c1OC
inactive: OVCAR-5 > 100 µM | SR 14.5 µM | OVCAR-3 34.3 µM | OVCAR-8 20 µM | EKVX 34.9 µM | SF-295 19.5 µM | A549 28.8 µM | SN12C 29.2 µM | NCI-H23 28.1 µM | NCI-H460 6.52 µM | MOLT-4 7.26 µM | TK-10 58.3 µM | SK-MEL-2 21.9 µM | CAKI-1 34.3 µM
